Experimental findings from patent EP0520554A2, “C-21 hydroxylated FK-506 antagonist” (MERCK & CO. INC., priority 1991, dated 1992) are described below.

For the assay, the system named is mouse T-cells activated with ionomycin + PMA. Description: T-cell proliferation assay (ionomycin plus PMA induced T-cell stimulation, tritiated thymidine uptake). The format is cell-based, C57B1/6 mice. How it is done:
The principle of this assay is to measure the proliferation of mouse T lymphocytes stimulated with the combination of ionomycin plus PMA. […] Cells were pelleted by centrifugation at 1500 rpm for 8 minutes. Contaminating red cells were removed by treating the pellet with ammonium chloride lysing buffer (GIBCO) for 2 minutes at 4°C. Cold medium was added and cells were again centrifuged at 1500 rpm for 8 minutes. T lymphocytes were then isolated by separation of the cell suspension on nylon wool columns as follows: Nylon wool columns were prepared by packing approximately 4 grams of washed and dried nylon wool into 20 ml plastic syringes. The columns were sterilized by autoclaving at 250°F for 30 minutes. Nylon wool columns were wetted with warm (37°C) culture medium and rinsed with the same medium. Washed spleen cells resuspended in warm medium were slowly applied to the nylon wool. The columns were then incubated in an upright position at 37°C for 1 hour. Non-adherent T lymphocytes were eluted from the columns with warm culture medium and the cell suspensions were spun as above. […] Ionomycin was added at 250 ng/ml and PMA at 10 ng/ml. The cell suspension was immediately distributed into 96 well flat-bottom microculture plates (Costar) at 200 µl/well. […] The proliferation of T lymphocytes was assessed by measurement of tritiated thymidine incorporation. After 44 hours of culturing, the cells were pulse-labelled with 2 µCi/well of tritiated thymidine (NEN, Cambridge, MA). After another 4 hours of incubation, cultures were harvested on glass fiber filters using a multiple sample harvester. Radioactivity of filter discs corresponding to individual wells was measured by standard liquid scintillation counting methods (Betacounter).

Take `CCC1(O)C=C(C)CC(C)CC(OC)C2OC(O)(C(=O)C(=O)N3CCCCC3C(=O)OC(C(C)=CC3CCC(O)C(OC)C3)C(C)C(O)CC1=O)C(C)CC2OC` (centres unmarked) [21-OH-590, C-21 hydroxylated FR-900520]: the inhibition (as a rule, the percentage by which the read-out fell short of the control) at 0.125 µg/mL (Mus musculus, T-cell, sample 125 ng/ml, no FK-506, tritiated thymidine uptake, harvest at 48 hours) came to 0%. The inhibition at 0.25 µg/mL (Mus musculus, T-cell, sample 250 ng/ml, no FK-506, tritiated thymidine uptake, harvest at 48 hours) was 0%. In addition, the inhibition at 0.5 µg/mL (Mus musculus, T-cell, sample 500 ng/ml, no FK-506, tritiated thymidine uptake, harvest at 48 hours) was 0%. Besides, the inhibition at 1 µg/mL (Mus musculus, T-cell, sample 1000 ng/ml, no FK-506, tritiated thymidine uptake, harvest at 48 hours) was 0%. The “% Inhibition + FK-506 (1.2 nM)” value was determined as 94% (sample 125 ng/ml in presence of FK-506 1.2 nM, harvest at 48 hours) and 63% (sample 250 ng/ml in presence of FK-506 1.2 nM, harvest at 48 hours).

`C=CC[C@@H]1/C=C(\C)C[C@H](C)C[C@H](OC)[C@H]2O[C@@](O)(C(=O)C(=O)N3CCCC[C@H]3C(=O)O[C@H](/C(C)=C/[C@@H]3CC[C@@H](O)[C@H](OC)C3)[C@H](C)[C@@H](O)CC1=O)[C@H](C)C[C@@H]2OC` [FK-506]: where the note is “Mus musculus, T-cell”, the inhibition at 0.01 µg/mL came out at 99%. For the same compound, the inhibition at 0.0012 µM (Mus musculus, T-cell, read-out: % Inhibition + FK-506 (1.2 nM)) is 97%.
